The structures appear in SMILES notation. Like-named read-outs stand apart in the source and are kept apart here.

The text below walks through data of patent US8435576B2, “Use of cocoa polyphenols for treating a prostate hyperplasia, a specific cocoa extract and applications” (Barry Callebaut AG, priority 2005, dated 2013).

Holding throughout (assay type): cell-based, human
The test system of test [1] is DU145 cells. Kind of test: Cell growth and viability (neutral red / sulforhodamine B) and morphology. The protocol: (§1) Each product (1 to 5) was applied for 1 to 72 hours, at various concentrations. The number of cells was compared with a control, namely cells cultured in the absence of the test compound.
(§2) The human prostate carcinoma cells DU145 and 22Rv1 were supplied by the American Type Culture Collection (ATCC, Rockville, Md.). The DU145 cells originate from a cerebral metastasic site and are not sensitive to androgens. The 22Rv1 cells originate from a prostate carcinoma and are sensitive to androgens. The cells were maintained in the form of a monolayer culture according to the usual techniques, in […] flasks (Corning), at 37° C., in an atmosphere containing 5% CO2 and at 95% humidity, in an RPMI-1640 medium free of phenol red and supplemented with 10% of heat-inactivated fetal calf serum and 1% of L-glutamine.
(§3) Five products were tested for this study and were stored protected from light, at +4° C. The β-sitosterol (product 1), obtained from Sigma Chemicals, was first dissolved in absolute ethanol, up to a final concentration of 24.1 mM. Product 2, supplied by Barry Callebaut, France, is a defatted cocoa extract containing 35.5% polyphenols and 0.081% β-sitosterol. Product 3 was reconstituted from products 1 and 2 and contained 35.5% polyphenols and 0.72% β-sitosterol. Products 4 and 5 were manufactured by Barry Callebaut, France. The composition of product 4 is unknown, and contains no β-sitosterol. Product 5 contains 35.27% polyphenols and 0.72% β-sitosterol. Products 2, 3, 4 and 5 were first dissolved in whole medium. As regards products 2, 4 and 5, the total polyphenols of the cocoa extracts originate from different countries.
(§4) Just before use, the final concentrations of products (table 1) used are prepared for the various experiments by means of stock solutions, by diluting the stock solution in whole medium. 64.2 μM of β-sitosterol is the maximum dose used in this solubility range and in the physiological range (4 to 70 μM). The absolute ethanol is at a constant concentration of 0.26% in the solvent-based control, in the negative control and in the 8 test concentrations. The ratios of the β-sitosterol and of the polyphenols for products 2, 3 and 5 are as follows: • Product 2:2:1000 • Product 3:2:100 • Product 5:2:100
(§5) The cells were inoculated on 96-well plates at an initial density of 15 000 cells/well for DU145, at an initial density of 30 000 cells/well for 22Rv1 and at an initial density of 25 000 cells/well for RWEP-1, with 200 μL of medium per well. The cell density was optimized as a function of the time required to double the population of cells, in order to obtain a significant measurement of the Optical Density (OD) and to be able to compare the various cells lines. After 24 hours, in order to ensure uniform fixing of the cells from the start of the experiments, the products were added to the cell cultures at various concentrations and at various times. After incubation with the products, the growth and viability of the cells was measured using neutral red (NR) and sulforhodamine B (SRB) combined (In Cytotox, Vandoeuvre, France). The absorption of the vital stain NR was used by the lysosomes/endosomes and by the vacuoles of the live cells as a quantitative indication of the number and viability of the cells after treatment with a chemical test. The anionic stain SRB made it possible to quantify the viable cells via measurement of the protein content of the cells.
(§6) The cytotoxicity was evaluated 1, 3, 6, 24, 48 and 72 hours after incubating the 22Rv1, RWEP-1 and DU145 cells with the products. The cells were washed with 200 μl of washing solution in order to remove the culture medium supplemented with the products. 200 μL of neutral red base medium was added and incubated with the cells at 37° C. for 3 hours. The neutral red base medium was then removed and the cells were washed twice with phosphate-buffered physiological saline (PBS). The cells were fixed for 1 minute with 200 μL of fixing solution. […]

In test [2] the test system is 22Rv1 cells. The description is as above. To be noted: for IC50: 72 h, read-out: CI50 (the source's name). The protocol:
as §1, §2, §3, §4, §5, §6

The test system of test [3] is coculture of 22Rv1 and RWEP-1 cells. Kind of test: Anti-galectin 8 immunolabeling of treated coculture. Conditions: medium M3, 2.5×10^−4% and 1.2×10^−4%. The protocol: As a result, an anti-galectin 8 human monoclonal antibody (R&D Systems, Ref: MAB1305) was selected to specifically fluorescence-label the human prostate tumor cell line.
The healthy and tumoral cells were inoculated in coculture, at a rate of 30 000 cells per well for each cell line, in the selected medium for obtaining uniform and specific labeling of the tumoral cells.
After 24 hours in an incubator at 37° C. and 5% CO2 of saturated humidity, the coculture was incubated in the presence of β-sitosterol at two concentrations and of CPE also at two concentrations.
At the end of the incubation time with the products, the cell lawns were fixed in alcohol/acetic acid and then labeled with the anti-galectin 8 human monoclonal antibody for 1 hour. […] After intensive washing with PBS, the labeled cell lawns were observed using a Nikon DXM1200F camera driven by LUCIA 6.0 software. All the images were taken under the same conditions and with identical camera settings.
For the experiment, in order to improve the intensity of this immunolabeling and for better visual rendering quality, the concentration of the anti-galectin 8 primary antibody was increased from 1/50th to 1/20th. Furthermore, this primary antibody was incubated overnight at +4° C. for better fixing of the antibody and thus for better labeling intensity. […]

`CC[C@H](CC[C@@H](C)[C@H]1CC[C@H]2[C@@H]3CC=C4C[C@@H](O)CC[C@]4(C)[C@H]3CC[C@]12C)C(C)C` [β-sitosterol]: the max. inhibition came to 11% in test [1] (24 h, DU145, NR); 42% in test [1] (24 h, DU145, SRB); 21% in test [1] (48 h, DU145, NR); 44% in test [1] (48 h, DU145, SRB); 42% in test [1] (72 h, DU145, NR); 40% in test [1] (72 h, DU145, SRB). The max. inhibition in test [2] (24 h, 22RV1, NR) is on record as 49%; in test [2] (24 h, 22RV1, SRB), 49%; in test [2] (48 h, 22RV1, NR) it was 36%; in test [2] (48 h, 22RV1, SRB), 47%. The Morphological alterations entry was “No significant difference was observed in terms of density and morphology” in test [1] (DU145, maximum concentration, up to 48 hours); “No significant difference in terms of density and morphology” in test [2] (22Rv1, maximum concentration, up to 48 hours). Also, the IC50 entry in test [1] (DU145, short-term and long-term treatments) was “did not induce an IC50”; in test [2] (22RV1, NR) it was 17.8 µM; in test [2] (22RV1, SRB), 34 µM. For the same compound, in test [2] (22Rv1, 1, 3 and 6 hours of treatment), the “Inhibition of lysosomial activity or protein synthesis” value is reported as “did not inhibit the lysosomial activity or protein synthesis”. Moreover, the “Area of labeling (anti-galectin 8 and Hoechst)” value in test [3] is “equivalent to that of the untreated proliferation control”.
